Consider one compound from patent US20240139333A1, “2,6-DICHLOROPHENYL ESTER COMPOUNDS AND USE THEREOF” (Fusion Pharmaceuticals Inc., priority 2021, published 2024).

The data set in a line: Stability of Compound J at pH = 2. The data set is classed as physicochemical. The following applies: pH 2, 20° C. The method, then: To an HPLC vial was added a 0.2 mg/mL solution of Compound J dissolved in H2O (0.1% v/v TFA) at pH=2 and the stability was monitored by HPLC-MS at 20° C. over 16 hours. Timed aliquots at time (T)=0, 30, 60, 120, 180, 240, 480 and 960 minutes were taken and analyzed by HPLC-MS using elution method 4 at 214 nm (Table 9).

Take `CC(=O)N(O)CCCCCNC(=O)CCC(=O)N(O)CCCCCNC(=O)CCC(=O)N(O)CCCCCNC(=O)CCOCCOCCOCCOCCOCCOCCOCCOCCOCCOCCOCCOCCC(=O)Oc1c(Cl)cccc1Cl` [Compound J, 2,6-Dichlorophenyl 1-{[5-(N-hydroxy-3-{8 5-(N-hydroxy-3-{[5-(N-hydroxyacetamido)pentyl]carbamoyl}propanamido)pentyl]carbamoyl}propanamido)pentylic carbamoyl}-3,6,9,12,15,18,21,24,27,30,33,36-dodecaoxanonatriacontan-39-oate]: the “% Compound J Remaining” value is recorded as 97.49% (0 min); 97.21% (30 min); 96.67% (60 min); 96.11% (120 min); 96.14% (180 min); 94.83% (240 min). Besides, the “% Compound J Remaining” value reads like this: (480 min) 94.39%; (960 min) 91.48%.
